# Test results as given in patent publication US20080213364A1, “Formulations of Pyridoxal-5'-Phosphate and Methods of Preparation” (Medicure International, Inc., priority 2004, published 2008).
# Legend:
# [1] = type: in vivo; details: 30 mg/kg daily as enteric coated tablets, Day 1 vs Day 7 parameters
# Experimental: (§1) Pharmacokinetics Study—The protocol was designed to first study a single dose of pyridoxal 5′-phosphate at three different dose levels: […] of body weight. Following evaluation of safety and tolerance, the highest tolerated dose was administered once daily for seven consecutive days. The product was manufactured as enteric-coated tablets each containing 250 mg of pyridoxal 5′-phosphate. The dose was calculated based on the body weight and rounded to the nearest 250 mg.
# During the single-dose phase, blood samples were collected prior to dosing and 1, 2, 3, 4, 5, 6, 7, 8, 12, 16 and 24 hours following drug administration. […]
# (§2) Pharmacokinetic Analysis—The following pharmacokinetic parameters were calculated: area under the curve from time zero to the last measurable concentration (AUC-T), area under the curve from time zero to infinity (AUC-inf), maximal plasma concentration (Cmax), time of maximal plasma concentration (Tmax), elimination constant (Kel), half-life (T½), mean residence time (MRT), clearance (Cl) and volume of distribution (Vd).
# Subjects randomized to the 15 mg/kg group actually received a dose of 14.58±1.11 mg/kg. […] During the multi-dose phase of the study, the number of tablets was calculated prior to the first drug administration and remained constant throughout the duration of the study, regardless of any change in body weight. […]
# [2] = Single-dose pharmacokinetics study, plasma pyridoxal 5′-phosphate; details: both, human, in vivo
# Experimental: as §1
# During the single-dose phase, blood samples were collected prior to dosing and 1, 2, 3, 4, 5, 6, 7, 8, 12, 16 and 24 hours following drug administration. During the multi-dose phase, blood samples were drawn each morning prior to dosing and 2 hours post-dose. Following the last dose on day 7, blood samples were drawn after 1, 2, 3, 4, 5, 6, 7, 8, 12, 16 and 24 hours.
# Plasma samples were separated and divided into two approximately equal aliquots and stored at −70±10° C. pending shipment (over dry ice) to the analytical laboratory.
# as §2
# Whenever possible, the area under the plasma concentration-time curve was calculated from time zero to the last measurable concentration (AUC T) using the linear trapezoidal method. AUC-T is expressed as ng·h/ml. AUC-T was also normalized for body weight and expressed as ng·h/ml/kg.
# The area under the curve from time zero to infinity (AUC-inf) was calculated as the sum of AUC-T+Clast/Kel where Clast represents the last measurable concentration and Kel the elimination rate constant calculated by linear least squares regression using the data points that best represent the terminal linear phase. AUC-inf is expressed as ng·h/ml. AUC-inf was also normalized for body weight and expressed as ng·h/mg/kg.
# Cmax is expressed in ng/ml. Cmax was also normalized for body weight and expressed as ng/ml/kg. […]
# The oral clearance was evaluated by dividing the dose (mg/kg) by AUC-inf (ng·h/mL). Clearance is expressed as L/h/kg. The actual clearance was also calculated without normalization for body weight and expressed as L/h.
# The volume of distribution is actually the Vdarea calculated by dividing the clearance (L/h/kg) by Kel (h-1). Vd is expressed as L/kg and is not corrected for absolute bioavailability. The actual volume of distribution was also calculated without normalization for body weight and expressed in liters. […]
structure (smiles),measurement,setting,value
Cc1ncc(COP(=O)(O)O)c(C=O)c1O [pyridoxal 5′-phosphate],accumulation upon multiple dosing,[1],does not accumulate upon multiple dosing
same,"mean maximal plasma concentration (mean curve, FIG. 3)",[2]; 15 mg/kg,1870 ± 2652 ng/mL
same,time at which mean maximal plasma concentration was reached,[2]; 15 mg/kg,6 h
same,"mean maximal plasma concentration (mean curve, FIG. 3)",[2]; 60 mg/kg,3922 ± 5457 ng/mL
same,time at which mean maximal plasma concentration was reached,[2]; 60 mg/kg,4 h
